We go through two molecules from US20190105260A1, “COMPOSITIONS AND METHODS TO PROMOTE WOUND HEALING” (The Regents of the University of California, priority 2016, published 2019).

Assay [1] has as its system Db/Db female mice, diabetic model of impaired wound healing. The assay can be described thus: In vivo splinted full-thickness excisional wound model, re-epithelialization analysis. Also noted: species or system mouse. As to conditions: for re-epithelialization vs vehicle control: daily topical 0.2% fluoxetine or 2% serotonin in 5% polyethylene glycol, day 10. The procedure: Panel B: Histomorphometric analysis of wounds. Representative histology sections for each group were chosen. Following euthanasia of animals, wounds were excised, biopsied and bisected. Wound tissue was fixed in paraformaldehyde for 12-16 hours and then paraffin embedded. Serial 5 μm sections were obtained from the center of the wound and the section with the largest wound bed (as defined by distance between hair follicles) was stained with hemotoxylin and eosin. Images were taken using 10× objective on a Keyance microscope. Panels C-D: Re-epithelialization was determined on sections created as in panel B. Image J analysis software was utilized to divide the re-epithelialized tissue (distance from hair follicle to remaining wound) by the entire original wound surface (as defined as distance between hair follicles). Panel D provides the distribution of data depicted in Panel C. P values were derived using a 2-tailed t-test.
13 week-old Db/Db female mice underwent full-thickness excisional biopsies with 8 mm punch biopsies. Wounds were splinted to prevent contraction. At day 12, animals were sacrificed and wounds were harvested to assess re-epithelialization. Representative histology sections for each group were chosen. Following euthanasia of animals, wounds were excised, biopsied and bisected. Wound tissue was fixed in paraformaldehyde for 12-16 hours and then paraffin embedded. Serial […] sections were obtained from the center of the wound and the section with the largest wound bed (as defined by distance between subcutaneous fat tissue) was stained with hemotoxylin and eosin. Images were taken using 10× objective on a Keyance microscope. (A) Re-epithelialization was determined on sections created. Image J analysis software was utilized to divide the re-epithelialized tissue by the entire original wound surface. (B) Percent of wounds at different stages of re-epithelialization was quantified. Data represented as Mean±SEM. P values were derived using a 2-tailed t-test. N=5/group.
13 week-old Db/Db female mice underwent full-thickness excisional wounding with 8 mm punch biopsy tool. All wounds were splinted to prevent contraction. […] At day 11, animals were sacrificed and wounds were harvested to assess re-epithelialization. Representative histology sections for each group were chosen. Following euthanasia of animals, wounds were excised, biopsied and bisected. Wound tissue was fixed in paraformaldehyde for 12-16 hours and then paraffin embedded. Serial […] sections were obtained from the center of the wound and the section with the largest wound bed (as defined by distance between subcutaneous fat tissue) was stained with hemotoxylin and eosin. Images were taken using 10× objective on a Keyance microscope. Re-epithelialization was determined on sections created. Image J analysis software was utilized to divide the re-epithelialized tissue by the entire original wound surface. Data represented as Mean±SEM. N=5/group.
Diabetic status (blood glucose >300 mg/dl) was confirmed in female Db/Db mice at age 11 weeks. At age 13 weeks, mice underwent hair removal and synchronization of follicle cycling through depilation and shaving. Synchronization was confirmed based on lack of skin pigmentation in included mice. 1 day after synchronization, 13-week-old Db/Db female mice underwent full-thickness excisional wounding using a splinted model as described. Briefly, 8 mm punch biopsies were used to make full-thickness excisional wounds. […]

Assay [2] concerns wound beds of Db/Db female mice. The assay can be described thus: Immunohistochemistry of wound beds (Gr-1, F4/80, CD31). As to conditions: topical treatment, day 10. In kind it is in vivo, mouse. As to the method:
13 week-old Db/Db female mice underwent full-thickness excisional biopsies with 8 mm punch biopsies. Wounds were splinted to prevent contraction. At day 10, animals were sacrificed and wounds were harvested to assess re-epithelialization. Representative histology sections for each group were chosen. Following euthanasia of animals, wounds were excised, biopsied and bisected. Wound tissue was fixed in paraformaldehyde for 12-16 hours and then paraffin embedded. Serial […] sections were obtained from the center of the wound and the section with the largest wound bed (as defined by distance between subcutaneous fat tissue—indicated by yellow arrows in figure). Images were taken using 10× objective on a Keyance microscope. Sections were stained with antibody to Gr-1 (A), CD31 (B) or F4/80 (C) to assess neutrophil, endothelial cell or macrophage numbers, respectively, in the wound beds. Wound bed area was outlined in Spectrum software (demarcated by yellow arrows in this figure), which then calculated the number of positive cells. Data is presented as positive cells/mm^2. P values were derived using a 1-tailed t-test. *, p<0.05; **, p<0.01. N=5/group.
Following euthanasia, wound tissue was harvested and processed as described above. Antibodies: F4/80 (Serotec, now BioRad MCA497A488, clone CI:A3-1, 1:100 dilution); GR-1 (Biolegend, catalog number 108402, clone RB6-8C5, 1:200 dilution); CD31 (Santa Cruz, catalog number sc1506, clone M20, 1:1800 dilution). Wound beds were analyzed in Spectrum software (UC Davis). Wound beds were outlined based on subcutaneous fat presence and positive cells were calculated as #/mm^2 of wound bed.

Assay [3] has as its system Neonatal Human Keratinocytes (NHKs). The assay can be described thus: Scratch wound assay. The format is cell-based. The procedure: FIGS. 2A-C illustrate that serotonin (5-HT) increases keratinocyte migratory speed and re-epithelialization in a scratch wound ex vivo model, likely through the ERK-STAT3-NFkB pathway.
Neonatal Human Keratinocytes (NHKs) were either non-treated (Control) or treated with 5-HT (1 μM) and FLX (0.01 μM, 0.1 μM, 1 μM) and/or 5HTR1A blocker (100 nM NAN190) and/or 5HTR2A antagonist (1 μM Ketanserin or KET). NHKs from at least 3 different donors were plated at fully confluent density and treated with Mitomycin to prevent proliferation. P-200 tips were used to induce a scratch wound in the middle of each well and time-lapse images were recorded every 30 minutes for 6 hours and % healed were calculated as previously described. Data represented as Mean±SEM. Student t-tests were used for statistical analysis. *, p<0.05; **, p<0.01; ***, p<0.001.
NHKs were isolated and cultured from human foreskin as previously reported. […]
NHKs from 3 different donors were plated on collagen-coated 12-well plates at fully confluent density and treated with Mitomycin C to prevent proliferation. P-200 tips were used to induce a scratch wound in the middle of each well and time-lapse images were recorded every 30 minutes for 6 hours and % healed were calculated as following: % Healed=([(SA)]_(t=0)−[(SA)]_(t=6))/[(SA)]_(t=0) which SA represents surface area of the scratch wound gap at 0-hour (t=0) or 6-hour time point. […]

On to `CNCCC(Oc1ccc(C(F)(F)F)cc1)c1ccccc1` (stereo not drawn) [fluoxetine], for which, in assay [1] (daily topical 0.2% fluoxetine or 0.01% timolol, day 12), the “re-epithelialization compared to PEG vehicle control” value is “increased”. The “re-epithelialization vs vehicle control” value in assay [1] was “significantly improved”. In assay [1] (day 11, all wounds with INTEGRA matrix, 1 μM fluoxetine daily, 250,000 MSC), the “increase in re-epithelialization compared to INTEGRA alone” value came to 17%. Also, in assay [2], the “angiogenesis (CD31+ endothelial cells) in wound beds vs vehicle” value was “significantly increased”, the “macrophage (F4/80+ cells) numbers in wound beds vs vehicle” value is on record as “significantly increased” and the “neutrophils (Gr-1+ cells) in wound beds vs vehicle” value is on record as “significantly fewer”. For the same molecule, the “migratory speed of human keratinocytes” value in assay [3] (fluoxetine (0.01-1 μM) in the presence of serotonin (1 μM), 6 hours) is listed as “significantly increased”.

For the molecule `NCCc1c[nH]c2ccc(O)cc12` [serotonin], the “re-epithelialization vs vehicle control” value in assay [1] was “significantly improved”. In assay [2], the “angiogenesis (CD31+ endothelial cells) in wound beds vs vehicle” value was “increasing”, the “macrophage (F4/80+ cells) numbers in wound beds vs vehicle” value is “increasing” and the “neutrophils (Gr-1+ cells) in wound beds vs vehicle” value is recorded as “significantly fewer”. The migration of keratinocytes result in assay [3] (primary keratinocytes from 3 donors, 6-hour time point, mitomycin-treated) was “enhance migration of keratinocytes in a dose-dependent manner”.
